Assay results: PubChem BioAssay AID248 (DTP/NCI, 2004)
Where “and” joins values, the source holds several entries; their conditions need not be identical. Identical values can stand only once. Inconclusive results and toxic doses are left out. No stated cut-off is given here; in the data, active means T/C of 150% or more; inactive means T/C below 125%.

Tested on: L1210 leukemia ip in BDF1 mice, survival T/C
Assay: NCI In Vivo Anticancer Drug Screen. Data for tumor model L1210 Leukemia (intraperitoneal) in B6D2F1 (BDF1) mice
Conditions: endpoint: mean survival time, higher = longer survival
Procedure, shortened: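 Each compound was tested against a transplantable tumor grown in mice. The endpoint was survival, with treated animals benchmarked against vehicle controls as a simple ratio.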

[1] = dose: 100.0 mg/kg/injection, schedule: Q01DX009 (ip), vehicle: Klucel (hydroxypropylcellulose) (HPC)
[2] = dose: 200.0 mg/kg/injection, schedule: Q01DX009 (ip), vehicle: Klucel (hydroxypropylcellulose) (HPC)
[3] = dose: 400.0 mg/kg/injection, schedule: Q01DX009 (ip), vehicle: Klucel (hydroxypropylcellulose) (HPC)
[4] = dose: 100.0 mg/kg/injection, schedule: Q01DX009 (ip), vehicle: saline
[5] = dose: 100.0 mg/kg/injection, schedule: Q04DX003 (ip), vehicle: saline
[6] = dose: 200.0 mg/kg/injection, schedule: Q01DX009 (ip), vehicle: saline
[7] = dose: 200.0 mg/kg/injection, schedule: Q04DX003 (ip), vehicle: saline

Measured: T/C

O=C(Nc1cc(Cl)ccc1O)Nc1cc(C(F)(F)F)ccc1Cl
inactive: dose: 100.0 mg/kg/injection, schedule: Q01DX001 (ip), vehicle: carboxymethylcellulose (CMC) 101 % of control | dose: 100.0 mg/kg/injection, schedule: Q01DX009 (ip), vehicle: carboxymethylcellulose (CMC) 95 % of control and 103 % of control | dose: 100.0 mg/kg/injection, schedule: Q04DX002 (ip), vehicle: carboxymethylcellulose (CMC) 97 % of control and 104 % of control | dose: 100.0 mg/kg/injection, schedule: Q04DX003 (ip), vehicle: carboxymethylcellulose (CMC) 97 % of control | dose: 200.0 mg/kg/injection, schedule: Q01DX001 (ip), vehicle: carboxymethylcellulose (CMC) 97 % of control | dose: 200.0 mg/kg/injection, schedule: Q01DX009 (ip), vehicle: carboxymethylcellulose (CMC) 97 % of control and 103 % of control | dose: 200.0 mg/kg/injection, schedule: Q04DX002 (ip), vehicle: carboxymethylcellulose (CMC) 97 % of control and 104 % of control | dose: 200.0 mg/kg/injection, schedule: Q04DX003 (ip), vehicle: carboxymethylcellulose (CMC) 97 % of control | dose: 400.0 mg/kg/injection, schedule: Q01DX001 (ip), vehicle: carboxymethylcellulose (CMC) 98 % of control | dose: 400.0 mg/kg/injection, schedule: Q01DX009 (ip), vehicle: carboxymethylcellulose (CMC) 92 % of control and 97 % of control | dose: 400.0 mg/kg/injection, schedule: Q04DX002 (ip), vehicle: carboxymethylcellulose (CMC) 98 % of control and 90 % of control | dose: 400.0 mg/kg/injection, schedule: Q04DX003 (ip), vehicle: carboxymethylcellulose (CMC) 100 % of control

Cc1ccc(/C([O-])=C(\C(=S)Nc2cccc(Cl)c2)[n+]2ccccc2)cc1
inactive: [1] 104 % of control | [2] 95 % of control | [3] 108 % of control

CCOC(=O)CCCCCCCCCCOc1ccc(C(C)=O)cc1
inactive: dose: 100.0 mg/kg/injection, schedule: Q04DX003 (ip), vehicle: Klucel (hydroxypropylcellulose) (HPC) 94 % of control | dose: 200.0 mg/kg/injection, schedule: Q04DX003 (ip), vehicle: Klucel (hydroxypropylcellulose) (HPC) 100 % of control | dose: 400.0 mg/kg/injection, schedule: Q04DX003 (ip), vehicle: Klucel (hydroxypropylcellulose) (HPC) 97 % of control

Nc1ccnc(Br)c1
inactive: [4] 103 % of control | [5] 109 % of control | [6] 100 % of control | [7] 107 % of control | dose: 400.0 mg/kg/injection, schedule: Q01DX009 (ip), vehicle: saline 101 % of control | dose: 400.0 mg/kg/injection, schedule: Q04DX003 (ip), vehicle: saline 112 % of control

CC(C)N(CCN)C(C)C
inactive: dose: 50.0 mg/kg/injection, schedule: Q01DX009 (ip), vehicle: saline 94 % of control | [4] 103 % of control | [5] 95 % of control | [6] 103 % of control | [7] 97 % of control

CCOC(=O)NC1c2ccccc2Oc2ccccc21
inactive: dose: 75.0 mg/kg/injection, schedule: Q01DX009 (ip), vehicle: saline 115 % of control | dose: 100.0 mg/kg/injection, schedule: Q04DX002 (ip), vehicle: Klucel (hydroxypropylcellulose) (HPC) 102 % of control | dose: 150.0 mg/kg/injection, schedule: Q01DX009 (ip), vehicle: saline 103 % of control | dose: 200.0 mg/kg/injection, schedule: Q04DX002 (ip), vehicle: Klucel (hydroxypropylcellulose) (HPC) 105 % of control | dose: 300.0 mg/kg/injection, schedule: Q01DX009 (ip), vehicle: saline 111 % of control | dose: 400.0 mg/kg/injection, schedule: Q04DX002 (ip), vehicle: Klucel (hydroxypropylcellulose) (HPC) 102 % of control

C=CCN(CC=C)C(=O)CCN1CC1
inactive: dose: 1.25 mg/kg/injection, schedule: Q01DX Z (ip), vehicle: saline 96 % of control | dose: 2.5 mg/kg/injection, schedule: Q01DX Z (ip), vehicle: saline 96 % of control | dose: 5.0 mg/kg/injection, schedule: Q01DX Z (ip), vehicle: saline 100 % of control | dose: 10.0 mg/kg/injection, schedule: Q01DX Z (ip), vehicle: saline 98 % of control and 111 % of control | dose: 10.0 mg/kg/injection, schedule: Q01DX Z (oral), vehicle: saline 108 % of control | dose: 20.0 mg/kg/injection, schedule: Q01DX001 (ip), vehicle: saline 103 % of control | dose: 20.0 mg/kg/injection, schedule: Q01DX Z (ip), vehicle: saline 96 % of control | dose: 20.0 mg/kg/injection, schedule: Q01DX Z (oral), vehicle: saline 117 % of control | dose: 40.0 mg/kg/injection, schedule: Q01DX001 (ip), vehicle: saline 115 % of control | dose: 40.0 mg/kg/injection, schedule: Q01DX Z (oral), vehicle: saline 86 % of control

O=[N+]([O-])c1ccc(N=N/C(=N\Nc2ccccc2)c2ccccc2)cc1
inactive: [1] 89 % of control | [2] 89 % of control | [3] 94 % of control

CC1N(N=O)CC1(Cl)c1ccccc1 (centres undefined)
inactive: dose: 100.0 mg/kg/injection, schedule: Q04DX002 (ip), vehicle: saline 98 % of control | dose: 200.0 mg/kg/injection, schedule: Q04DX002 (ip), vehicle: saline 98 % of control | dose: 400.0 mg/kg/injection, schedule: Q04DX002 (ip), vehicle: saline 102 % of control

CN(N)C(=S)c1ccc(Cl)cc1
inactive: dose: 50.0 mg/kg/injection, schedule: Q04DX003 (ip), vehicle: saline 102 % of control | dose: 100.0 mg/kg/injection, schedule: Q01DX001 (ip), vehicle: saline 95 % of control | [5] 100 % of control | dose: 200.0 mg/kg/injection, schedule: Q01DX001 (ip), vehicle: saline 93 % of control | [7] 96 % of control

COC(=O)C1C2C=CC(CC2)C1(C)C(=O)OC (centres undefined)
inactive: dose: 100.0 mg/kg/injection, schedule: Q04DX003 (ip), vehicle: saline with Tween-80 95 % of control | dose: 200.0 mg/kg/injection, schedule: Q04DX003 (ip), vehicle: saline with Tween-80 101 % of control | dose: 400.0 mg/kg/injection, schedule: Q04DX003 (ip), vehicle: saline with Tween-80 90 % of control

CCOC(=O)C(CCC#N)(CCC(=O)OC)C(C)=O (centres undefined)
inactive: dose: 100.0 mg/kg/injection, schedule: Q04DX002 (ip), vehicle: saline with Tween-80 97 % of control | dose: 200.0 mg/kg/injection, schedule: Q04DX002 (ip), vehicle: saline with Tween-80 116 % of control | dose: 400.0 mg/kg/injection, schedule: Q04DX002 (ip), vehicle: saline with Tween-80 94 % of control

C[C@]12C=CC(=O)C=C1CC[C@@H]1[C@@H]2[C@@H](O)C[C@@]2(C)[C@H]1CC[C@]2(O)C(=O)COC(=O)CCC(=O)O
inactive: dose: 63.0 mg/kg/injection, schedule: Q01DX015 (sc), vehicle: steriod suspending solution 106 % of control | dose: 125.0 mg/kg/injection, schedule: Q01DX015 (sc), vehicle: steriod suspending solution 106 % of control | dose: 250.0 mg/kg/injection, schedule: Q01DX015 (sc), vehicle: steriod suspending solution 96 % of control | dose: 500.0 mg/kg/injection, schedule: Q01DX015 (sc), vehicle: steriod suspending solution 108 % of control and 116 % of control

c1ccc(C2=NC2c2ccccc2)cc1 (centres undefined)
inactive: dose: 25.0 mg/kg/injection, schedule: Q01DX001 (ip), vehicle: Klucel (hydroxypropylcellulose) (HPC) 97 % of control | dose: 50.0 mg/kg/injection, schedule: Q01DX001 (ip), vehicle: Klucel (hydroxypropylcellulose) (HPC) 96 % of control | dose: 100.0 mg/kg/injection, schedule: Q01DX001 (ip), vehicle: Klucel (hydroxypropylcellulose) (HPC) 105 % of control

Cc1[nH]c2ccccc2c1C
inactive: [1] 104 % of control | [2] 87 % of control

CN=C(N/N=C/c1ccccc1)N(C)C
inactive: dose: 25.0 mg/kg/injection, schedule: Q04DX003 (ip), vehicle: Klucel (hydroxypropylcellulose) (HPC) 107 % of control | dose: 50.0 mg/kg/injection, schedule: Q04DX003 (ip), vehicle: Klucel (hydroxypropylcellulose) (HPC) 100 % of control | dose: 87.5 mg/kg/injection, schedule: Q04DX003 (ip), vehicle: Klucel (hydroxypropylcellulose) (HPC) 98 % of control
